Source: patent US10526327B2, “Histone demethylase inhibitors” (CELGENE QUANTICEL RESEARCH, INC., priority 2013, dated 2020)

Key:
[1] = target: T1, Jarid1A (Homo sapiens, UniProt P29375); assay: Jarid1A in vitro enzyme inhibition assay (TR-FRET); format: biochemical
T1 construct: purchased BPS Bioscience 50110
T1 sequence (P29375 1-1090): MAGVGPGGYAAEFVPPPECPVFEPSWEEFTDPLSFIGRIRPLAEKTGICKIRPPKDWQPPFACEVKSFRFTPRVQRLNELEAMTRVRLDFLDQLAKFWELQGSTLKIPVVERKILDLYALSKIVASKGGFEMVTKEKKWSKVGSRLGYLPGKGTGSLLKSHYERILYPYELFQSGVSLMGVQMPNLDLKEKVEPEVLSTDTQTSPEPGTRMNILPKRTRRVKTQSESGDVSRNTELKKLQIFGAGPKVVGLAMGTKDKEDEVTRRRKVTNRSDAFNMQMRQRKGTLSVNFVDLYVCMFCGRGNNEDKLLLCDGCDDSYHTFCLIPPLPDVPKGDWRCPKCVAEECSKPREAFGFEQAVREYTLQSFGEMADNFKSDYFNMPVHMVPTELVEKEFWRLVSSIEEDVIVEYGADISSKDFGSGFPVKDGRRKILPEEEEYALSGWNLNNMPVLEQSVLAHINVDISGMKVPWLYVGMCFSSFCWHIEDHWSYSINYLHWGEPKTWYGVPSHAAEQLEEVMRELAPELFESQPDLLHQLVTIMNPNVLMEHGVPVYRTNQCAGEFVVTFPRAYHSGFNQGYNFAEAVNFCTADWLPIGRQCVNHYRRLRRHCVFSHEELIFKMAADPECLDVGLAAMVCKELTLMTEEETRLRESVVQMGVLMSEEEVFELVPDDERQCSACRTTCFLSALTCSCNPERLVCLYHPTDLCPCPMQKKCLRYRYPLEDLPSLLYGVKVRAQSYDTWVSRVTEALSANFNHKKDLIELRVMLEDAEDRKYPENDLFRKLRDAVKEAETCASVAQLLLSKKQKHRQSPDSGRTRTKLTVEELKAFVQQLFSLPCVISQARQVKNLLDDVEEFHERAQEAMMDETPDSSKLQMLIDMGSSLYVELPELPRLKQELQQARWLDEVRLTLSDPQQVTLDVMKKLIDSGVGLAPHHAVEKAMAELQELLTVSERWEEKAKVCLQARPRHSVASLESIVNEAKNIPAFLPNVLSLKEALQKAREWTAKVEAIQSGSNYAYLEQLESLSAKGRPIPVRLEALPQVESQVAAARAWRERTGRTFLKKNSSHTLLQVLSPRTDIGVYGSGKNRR
Text: This assay determines the ability of a test compound to inhibit Jarid1A, Jarid1B, and JMJD2C demethylase activity. Baculovirus expressed Jarid1A (GenBank Accession #NM_001042603, AA1-1090) was purchased from BPS Bioscience (Cat#50110). Baculovirus expressed Jarid1B (GenBank Accession #NM_006618, AA 2-751) was purchased from BPS Bioscience (Cat #50121) or custom made by MolecularThroughput. Baculovirus expressed JMJD2C (GenBank Accession #BC143571, AA 2-372) was purchased from BPS Bioscience (Cat#50105).
The enzymatic assay of Jarid1A activity is based upon Time Resolved-Fluorescence Resonance Energy Transfer (TR-FRET) detection. The ability of test compounds to inhibit the activity of Jarid1A was determined in 384-well plate format under the following reaction conditions: 1 nM Jarid1A, 300 nM H3K4me3-biotin labeled peptide (Anaspec cat #64357), 2 μM alpha-ketoglutaric acid in assay buffer of 50 mM HEPES, pH7.3, 0.005% Brij35, 0.5 mM TCEP, 0.2 mg/ml BSA, 50 μM sodium L-ascorbate, and 2 μM ammonium iron(II) sulfate. Reaction product was determined quantitatively by TR-FRET after the addition of detection reagent Phycolink Streptavidin-allophycocyanin (Prozyme) and Europium-anti-mono-or di-methylated histone H3 lysine 4 (H3K4me1-2) antibody (PerkinElmer) in the presence of 5 mM EDTA in LANCE detection buffer (PerkinElmer) at a final concentration of 25 nM and 1 nM, respectively.
The assay reaction was initiated by the following: 2 μl of the mixture of 900 nM H3K4me3-biotin labeled peptide and 6 μM alpha-ketoglutaric acid with 2 μl of 11-point serial diluted inhibitor in 3% DMSO was added to each well of plate, followed by the addition of 2 μl of 3 nM Jarid1A to initiate the reaction. The reaction mixture was incubated at room temperature for 30 minutes, and terminated by the addition of 6 μl of 5 mM EDTA in LANCE detection buffer containing 50 nM Phycolink Streptavidin-allophycocyanin and 2 nM Europium-anti-H3K4me1-2 antibody. Plates were read by EnVisionMultilabel Reader in TR-FRET mode (excitation at 320 nm, emission at 615 nm and 665 nm) after 1 hour incubation at room temperature. A ratio was calculated (665/615) for each well and fitted to determine inhibition constant (IC50).

[2] = tested on: KDM5A/B; assay: In vitro cell-based assay: immuno-blot quantification of tri-methyl H3K4 in ZR-75-1 breast cancer cells; conditions: 72 hours, tri-methyl H3K4 level relative to GAPDH, percent of DMSO, read-out: Cellular IC50
Text: An assay to measure the degree of cellular inhibition of KDM5A and 5B was developed. This quantitative immuno-blotting assay measures the amount tri-methylated histone H3 at amino acid Lysine number 4, a specific substrate […] of the direct enzymatic activity of the histone demethylases KDM5A and KDM5B from extracts of the ZR-75-1 breast cancer cell line.
This assay is a fluorometric immunoassay for the quantification of tri-methyl H3K4 extracted from cells treated with test compound and is used as a measure of the cellular inhibition of KDM5A/B.
ZR-75-1 (PTEN null, ER+) breast cancer cells numbering 50,000 (ATCC) were seeded into each well of a 96-well tissue culture treated plate and then exposed to an 11 point dilution of test compound with final concentration ranges of test compound ranging from 1250 μM to 10 nM. Cells were left in the presence of test compound for 72 hours. Extracts were prepared containing all of the cellular histone material using detergent based lysis and sonication methods. These lysates were subsequently normalized for total protein content using a colorimetric bicinchonic acid assay (MicroBCA Pierce/Thermo Scientific). Normalized cell extracts were then subjected to typical immuno-blotting procedures using NuPage reagents (Life Technologies). Electrophoretically separated histones were then transferred and immobilized using polyvinylidene difluoride membrane (Immobilon-FL Millipore). The amount of tri-methylated lysine 4 of histone H3 was detected using an antibody specific to the tri-methylated state (Cell Signaling Technologies) and quantified on an infrared imager using a densitometry software package (Odyssey CLx, Image Studio, Li-Cor). This background subtracted densitometry value was reported as a ration of the GAPDH amount for that sample and then calculated as a percent of the DMSO treated sample. The software package XL-fit (IDBS) was then used to calculate a relative IC50 value for the dilution series of a given test compound according to the equation: fit=(D+((Vmax*(x^n))/((x^n)+(Km^n)))).

IC50 [1] [nM]	IC50 [2] [nM]	SMILES
100 to 1000	1000 to 10000	Oc1nc(OCc2ccccc2)nc2cnccc12 [Example 4, 2-phenylmethoxypyrido[3,4-d]pyrimidin-4-ol]
≤ 100	> 10000	Oc1nc(OCC2CC2)nc2cnccc12 [Example 5, 2-(cyclopropylmethoxy)-3H-pyrido[3,4-d]pyrimidin-4-one]
≤ 100	> 10000	CCCOc1nc(O)c2ccncc2n1 [Example 7, 2-propoxy-3H-pyrido[3,4-d]pyrimidin-4-one]
≤ 100	> 10000	Oc1nc(OCCOc2ccccc2)nc2cnccc12 [Example 10, 2-(2-phenoxyethoxy)-3H-pyrido[3,4-d]pyrimidin-4-one]
100 to 1000	> 10000	Oc1nc(OCC2CCC2)nc2cnccc12 [Example 11, 2-(cyclobutylmethoxy)-3H-pyrido[3,4-d]pyrimidin-4-one]
≤ 100	> 10000	Oc1nc(OCC(F)(F)F)nc2cnccc12 [Example 12, 2-(2,2,2-trifluoroethoxy)pyrido[3,4-d]pyrimidin-4-ol]
≤ 100	1000 to 10000	CC(=O)Nc1ccc(Oc2nc(O)c3ccncc3n2)cc1 [Example 35, N-[4-(4-hydroxypyrido[3,4-d]pyrimidin-2-yl)oxyphenyl]acetamide]
≤ 100	> 10000	Oc1nc(Oc2ccc(F)c(F)c2)nc2cnccc12 [Example 37, 2-(3,4-difluorophenoxy)pyrido[3,4-d]pyrimidin-4-ol]
≤ 100	> 10000	Oc1nc(Oc2cccc(F)c2)nc2cnccc12 [Example 40, 2-(3-fluorophenoxy)pyrido[3,4-d]pyrimidin-4-ol]
≤ 100	> 10000	Oc1nc(Oc2cccc(Cl)c2)nc2cnccc12 [Example 41, 2-(3-chlorophenoxy)pyrido[3,4-d]pyrimidin-4-ol]
≤ 100	> 10000	COc1cccc(Oc2nc(O)c3ccncc3n2)c1 [Example 44, 2-(3-methoxyphenoxy)pyrido[3,4-d]pyrimidin-4-ol]
≤ 100	> 10000	CCOc1c(F)cc(Oc2nc(O)c3ccncc3n2)cc1F [Example 45, 2-(4-ethoxy-3,5-difluorophenoxy)pyrido[3,4-d]pyrimidin-4-ol]
≤ 100	> 10000	Oc1nc(Oc2ccc(F)cc2)nc2cnccc12 [Example 47, 2-(4-fluorophenoxy)pyrido[3,4-d]pyrimidin-4-ol]
≤ 100	> 10000	COc1ccc(Oc2nc(O)c3ccncc3n2)cc1 [Example 48, 2-(4-methoxyphenoxy)pyrido[3,4-d]pyrimidin-4-ol]
≤ 100	–	O=S(=O)(C1CC1)N1CCC(n2cc(Oc3nc(O)c4ccncc4n3)cn2)CC1 [Example 94, 2-[1-(1-cyclopropylsulfonylpiperidin-4-yl)pyrazol-4-yl]oxypyrido[3,4-d]pyrimidin-4-ol]
≤ 100	–	O=S(=O)(c1ccccc1)N1CCC(n2cc(Oc3nc(O)c4ccncc4n3)cn2)CC1 [Example 95, 2-[1-[1-(benzenesulfonyl)piperidin-4-yl]pyrazol-4-yl]oxypyrido[3,4-d]pyrimidin-4-ol]
≤ 100	–	Oc1nc(Oc2ccnc(N3CCNCC3)c2)nc2cnccc12 [Example 96, 2-(2-piperazin-1-ylpyridin-4-yl)oxypyrido[3,4-d]pyrimidin-4-ol]
≤ 100	–	Oc1nc(Oc2ccnc(N3CCOCC3)c2)nc2cnccc12 [Example 97, 2-(2-morpholin-4-ylpyridin-4-yl)oxypyrido[3,4-d]pyrimidin-4-ol]
100 to 1000	–	Cn1cnc(-c2nccc3c(O)nc(OCC(C)(C)O)nc23)c1 [Example 98, 2-(2-hydroxy-2-methylpropoxy)-8-(1-methylimidazol-4-yl)pyrido[3,4-d]pyrimidin-4-ol]
≤ 100	–	CC(c1ccccc1)n1cc(Oc2nc(O)c3ccncc3n2)cn1 (centres unmarked) [Example 99]
≤ 100	–	Cn1cnc(-c2nccc3c(O)nc(Oc4cnn(C5CCOCC5)c4)nc23)c1 [Example 100, 8-(1-methylimidazol-4-yl)-2-[1-(oxan-4-yl)pyrazol-4-yl]oxypyrido[3,4-d]pyrimidin-4-ol]
≤ 100	–	Cn1cnc(-c2nccc3c(O)nc(OCc4ccccc4)nc23)c1 [Example 101, 8-(1-methylimidazol-4-yl)-2-phenylmethoxypyrido[3,4-d]pyrimidin-4-ol]
100 to 1000	–	Cn1cnc(-c2nccc3c(O)nc(OCC4CCOCC4)nc23)c1 [Example 102, 8-(1-methyl-1H-imidazol-4-yl)-2-(oxan-4-ylmethoxy)pyrido[3,4-d]pyrimidin-4-ol]
100 to 1000	–	Cn1cnc(-c2nccc3c(O)nc(OCC4CCOC4)nc23)c1 (centres unmarked) [Example 103, 8-(1-methyl-1H-imidazol-4-yl)-2-(oxolan-3-ylmethoxy)pyrido[3,4-d]pyrimidin-4-ol]
100 to 1000	–	Cn1cnc(-c2nccc3c(O)nc(OCc4cccc(F)c4)nc23)c1 [Example 104, 2-[(3-fluorophenyl)methoxy]-8-(1-methyl-1H-imidazol-4-yl)pyrido[3,4-d]pyrimidin-4-ol]
1000 to 10000	–	Cn1cnc(-c2nccc3c(O)nc(OCc4ccccc4Cl)nc23)c1 [Example 105, 2-[(2-chlorophenyl)methoxy]-8-(1-methyl-1H-imidazol-4-yl)pyrido[3,4-d]pyrimidin-4-ol]
1000 to 10000	–	Cn1cnc(-c2nccc3c(O)nc(OCc4cccc(Cl)c4Cl)nc23)c1 [Example 106, 2-[(2,3-dichlorophenyl)methoxy]-8-(1-methyl-1H-imidazol-4-yl)pyrido[3,4-d]pyrimidin-4-ol]
